In US20230285310A1, “COMPOSITIONS FOR THE DELIVERY OF PAYLOAD MOLECULES TO AIRWAY EPITHELIUM” (ModernaTX, Inc., priority 2020, published 2023):
Where a name gives a salt, the structure may show the parent alone.

Legend:
Assay type in all cases: in vivo
respiratory epithelium [1] = assay: LNP protein expression in rat after single dose of mRNA-LNP by intratracheal delivery (anti-V5 IHC); conditions: intratracheal instillation, ~1.2 mpk, NPI-Luc mRNA, core with β-sitosterol for SA23
Description: Animals are anesthetized under isoflurane. The tongue is displaced and a small diameter cannula is inserted into the trachea (oropharyngeal route). The cannula tip is passed through the vocal chords, down the trachea so that the tip is very near, but not touching, the carina. Upon placement, 50 μL (mouse) or 200 μL (rat) of formulation is infused into the lungs. After 30 seconds upright, animals are released into a recovery cage and returned to their respective cages once recovered. Trachea, lungs and for the aerosol study nasal cavities, nasopharynx and larynx are collected for analysis. Lungs are inflated with 10% NBF fixative and trachea tied off to maintain inflation. Lungs are removed en bloc with attached trachea, bronchi and lobes. Whole lungs en bloc are fixed in 10% NBF at room temperature for at least 24 hours with a maximum of 48 hours and then removed from fixative and placed in PBS. Samples are immediately sent to be processed for paraffin 5-micron sections and H&E staining. IHC was performed on FFPE sections using the Leica Bond RX autostainer. […] Images were imaged at 20× magnification with the Panoramic 250 Flash III whole slide scanner. Image analysis was completed with Indica Labs HALO image analysis software. […] LNPs were prepared according to Example 2 using NPI-Luc as the mRNA construct. […] LNP protein expression in respiratory epithelium was evaluated according to sample collection and assay procedures A and B. The results are shown in Table 13b.

respiratory epithelium [2] = assay: LNP protein expression in rat after single dose of mRNA-LNP by nose-only aerosol delivery (anti-V5 IHC); conditions: LNP per Example 8
Excerpt: Aerosol is generated using a vibrating mesh nebulizer and a defined inlet air flow rate. Aerosol is introduced into the rodent nose-only directed flow exposure chamber by first passing through a mixing chamber before flowing into the exposure tier. Animals are exposed to fresh aerosol at each nose port, which is then exhausted out of the system.
Animals were trained to the nose-only dosing cones for three days prior to initiation of the study. On study day, animals were placed into the dosing cones that were then attached to the aerosol exposure chamber for designated exposure times of 60, 120 or 240 minutes per group for lung doses of 0.4, 0.6 and 1.1 mpk. Animals were monitored continuously throughout the entire exposure and subsequently for any observable adverse reactions. Aerosol concentration (mRNA) and aerodynamic particle size distribution were monitored at the dosing port before and after each dosing occasion to evaluate achieved dose levels and respirable aerosol particle size targets (1-4 μm for rat) respectively.
Trachea, lungs and for the aerosol study nasal cavities, nasopharynx and larynx are collected for analysis. Lungs are inflated with 10% NBF fixative and trachea tied off to maintain inflation. Lungs are removed en bloc with attached trachea, bronchi and lobes. Whole lungs en bloc are fixed in 10% NBF at room temperature for at least 24 hours with a maximum of 48 hours and then removed from fixative and placed in PBS. Samples are immediately sent to be processed for paraffin 5-micron sections and H&E staining.
For the aerosol study, nasal cavities, nasopharynx and larynx were also collected in addition to trachea and lungs.
IHC was performed on FFPE sections using the Leica Bond RX autostainer. NPI-Luc protein expression was detected by anti-V5 tag antibody at a 1:100 dilution. V5 antibody was detected with the Bond Polymer Refine Detection kit followed by hematoxylin and bluing reagent counterstain. Images were imaged at 20× magnification with the Panoramic 250 Flash III whole slide scanner. Image analysis was completed with Indica Labs HALO image analysis software. Trachea, lung and/or nasal cavity images were analyzed to capture total tracheal, bronchial or nasal epithelial cells and data expressed when appropriate as p % V5 positive epithelial cells per total epithelial cells per animal.
LNPs were prepared according to Example 8 using NPI-Luc as the mRNA construct. LNPs were delivered to rats by aerosol delivery using a nose-only aerosol dosing system. LNP protein expression in respiratory epithelium was evaluated according to sample collection and assay procedures A and B. The results are shown in Table 13c. Respiratory epithelium in the nasal cavity, trachea and bronchi were positive for protein expression after aerosol delivery of LNPs.

respiratory epithelium [3] = assay: LNP protein expression in mouse after single dose of mRNA-LNP by intratracheal delivery (anti-V5 IHC); conditions: intratracheal instillation, ~0.7 mpk, NPI-Luc mRNA, core with β-sitosterol for SA23, SA31
Description: Animals are anesthetized under isoflurane. The tongue is displaced and a small diameter cannula is inserted into the trachea (oropharyngeal route). The cannula tip is passed through the vocal chords, down the trachea so that the tip is very near, but not touching, the carina. Upon placement, 50 μL (mouse) or 200 μL (rat) of formulation is infused into the lungs. After 30 seconds upright, animals are released into a recovery cage and returned to their respective cages once recovered. Trachea, lungs and for the aerosol study nasal cavities, nasopharynx and larynx are collected for analysis. Lungs are inflated with 10% NBF fixative and trachea tied off to maintain inflation. Lungs are removed en bloc with attached trachea, bronchi and lobes. Whole lungs en bloc are fixed in 10% NBF at room temperature for at least 24 hours with a maximum of 48 hours and then removed from fixative and placed in PBS. Samples are immediately sent to be processed for paraffin 5-micron sections and H&E staining. IHC was performed on FFPE sections using the Leica Bond RX autostainer. […] Images were imaged at 20× magnification with the Panoramic 250 Flash III whole slide scanner. Image analysis was completed with Indica Labs HALO image analysis software. […] LNPs were prepared according to Example 2 using NPI-Luc as the mRNA construct. LNPs were delivered to mice by intratracheal instillation for a dose of ˜0.7 mpk. LNP protein expression in respiratory epithelium was evaluated according to sample collection and assay procedures A and B. The results are shown in Table 13a.

## CC(C)CCC[C@@H](C)[C@H]1CC[C@H]2[C@@H]3CC=C4C[C@@H](OC(=O)N(CCCN)CCCCNCCCN)CC[C@]4(C)[C@H]3CC[C@]12C [SA3, (3S,8S,9S,10R,13R,14S,17R)-10,13-dimethyl-17-((R)-6-methylheptan-2-yl)-2,3,4,7,8,9,10,11,12,13,14,15,16,17-tetradecahydro-1H-cyclopenta[a]phenanthren-3-yl (3-aminopropyl)(4-((3-aminopropyl)amino)butyl)carbamate, trihydrochloride salt]
Respiratory epithelium [1]; Rat Bronchi (left and right lung)
  Average % V5 positive cells/total cells: 4.95%
Respiratory epithelium [1]; Rat Trachea
  Average % V5 positive cells/total cells: 2.97%
Respiratory epithelium [2]; Rat Bronchi (left and right lung), lung dose 0.4 mpk
  Average % V5 positive cells/total cells: 0.13%
Respiratory epithelium [2]; Rat Bronchi (left and right lung), lung dose 0.6 mpk
  Average % V5 positive cells/total cells: 0.13%
Respiratory epithelium [2]; Rat Bronchi (left and right lung), lung dose 1.1 mpk
  Average % V5 positive cells/total cells: 0.46%
Respiratory epithelium [2]; Rat Nasal Cavity, lung dose 0.4 mpk
  Average % V5 positive cells/total cells: 0.64%
Respiratory epithelium [2]; Rat Nasal Cavity, lung dose 0.6 mpk
  Average % V5 positive cells/total cells: 1.20%
Respiratory epithelium [2]; Rat Nasal Cavity, lung dose 1.1 mpk
  Average % V5 positive cells/total cells: 2.84%
Respiratory epithelium [2]; Rat Trachea, lung dose 0.4 mpk
  Average % V5 positive cells/total cells: 0.29%
Respiratory epithelium [2]; Rat Trachea, lung dose 0.6 mpk
  Average % V5 positive cells/total cells: 0.16%
Respiratory epithelium [2]; Rat Trachea, lung dose 1.1 mpk
  Average % V5 positive cells/total cells: 0.65%
Respiratory epithelium [3]; Mouse Bronchi (left lung)
  Average % V5 positive cells/total cells: 9.33%
Respiratory epithelium [3]; Mouse Trachea
  Average % V5 positive cells/total cells: 40.7%
